Assay results published in patent US5552156A, “Liposomal and micellular stabilization of camptothecin drugs” (Ohio State University, priority 1995, dated 1996).

What was measured:
Assay type in all cases: physicochemical
[1] = HPLC assay of lactone ring hydrolysis, free in PBS or associated with liposomes or micelles
Description: A high performance liquid chromatography assay was used to determine the rate of hydrolysis of camptothecin and topotecan free in aqueous solution and to compare such rates with the rate of hydrolysis for the same drugs when bound to the DMPG and DMPC liposome membranes. The assay was conducted under near physiological conditions; the pH was 7.4, the temperature was 37° C. and the ionic strength was physiological. A Spectroflow model 980 fluorescence detector coupled to an HP 3392A integrator which acquired and processed the chromatograms, was used. For camptothecin, an Ultrasphere ODS C-18 250 mm long column was used. The mobile phase consisted of 32% acetonitrile, 67% 0.1M acetate buffer, pH 5.5, and 1% 01.M sodium dodecylsulfate at a flow rate of 1 mL/min. The detector was set to 370 nm excitation wavelength and a 418 nm long pass emission filter. A 1 μM solution of camptothecin in PBS was prepared and incubated at 37° C. Immediately after mixing the drug stock solution with PBS and at intervals of 5 min thereafter, 50 μL aliquots were taken out and mixed with 150 μL methanolic internal standard, 9-toluoylamidocamptothecin and either analyzed immediately or kept cold under dry ice. 150 μL of this mixture was diluted with 125 μL water and 200 μL was injected. The ratio of the peak areas corresponding to the intact lactone form of the camptothecin drug and the internal standard at a particular time was normalized to that at the time of mixing and was considered as the concentration of the intact lactone form.
For topotecan the excitation wavelength was 362 nm and the emission was observed through a 470 long wave pass filter. The stationary phase was Waters Nova-Pak C-18 150mm long column. The mobile phase consisted of 500 mL 0.1M KH2 PO4, 550 mL acetonitrile, 4.2 mL triethylamine (distilled over molecular sieves), 4.44 g sodium dioctylsulfosuccinate (DOSS), and 970 ml water. The pH was adjusted to 6.0 with H3 PO4. Internal standard solution contained 50×10^-9 g acridine from Eastman and 20×10^-3 M DOSS in methanol and was always kept cold at ≤-20° C. Next 150 μL or cold internal standard solution was mixed with 50 μL aliquot containing topotecan, centrifuged for 1 minute and the supernatant was either analyzed immediately or stored at -20° C. for analysis at a later time, within 2 hours. Samples were monitored at time points from 0 minutes, that is, immediately following dissolution, up to 72 hours.
The kinetics of lactone ring hydrolysis for free camptothecin, CMC and topotecan are shown in of FIGS. 7a, 7b and 7c. Analysis of the decay profile for camptothecin, CMC and topotecan free in PBS was accomplished using a nonlinear least squares program.

[2] = Fluorescence excitation and emission spectra of camptothecin drugs free in solution and bound to liposomes
Source text: The camptothecin drugs are intrinsically intensely fluorescent. Fluorescence is associated with the extended conjugation of the quinoline ring system. The liposomes of Examples 1-7 were characterized for the presence of the camptothecin drugs, using excitation and emission spectrography, and fluorescence anisotropy.
(§1) Steady-state fluorescence measurements were obtained on a SLM Model 4800C. spectrofluorometer with a thermostated cuvette compartment. This instrument was interfaced with an IBM PS/2 model 55 SX computer. Excitation and emission spectra were recorded with an excitation resolution of 8 nm and an emission resolution of 4 nm. In all cases spectra were corrected for background fluorescence and scatter from unlabeled lipids or from solvents by subtraction of the spectrum of a blank. Steady-state fluorescence intensity measurements were made in the absence of polarizer. Steady-state anisotropy (a) measurements were determined with the instrument in the "T-format" for simultaneous measurement of two polarized intensities. The alignment of polarizers were checked routinely using a dilute suspension of 0.25 μm polystyrene microspheres from Polysciences, Inc, Warrington, Pa., in water; anisotropy values of >0.99 were obtained. The anisotropy was calculated from a=(Ivv -GlVH)/(Ivv +GIVH), where G-IVH /IHH and the subscripts refer to vertical and horizontal orientations of the excitation and emission polarizers, respectively.
(§2) Anisotropy measurements for camptothecin, camptothecin carboxylate sodium salt, and 10,11-methylenedioxycamptothecin were conducted using exciting light of 370 nm and 420 nm long wave pass filters on each emission channel in order to isolate the fluorescence signal from background scatter and signal. For topotecan a 400 nm excitation wavelength and a 500 nm emission filter were used and for 9-aminocamptothecin a 375 nm excitation and a wavelength 420 nm emission filter were used. For AMC and CMC, a 370 nm excitation wavelength and a 400 nm emission filter were used. For 10-hydroxycamptothecin 375 nm excitation wavelength 500 nm emission filter was used. Emission filters were obtained from Oriel Corp. Stamford, Conn. The combination of exciting light and emission filters allows one to adequately separate the fluorescence from the background signal. The contribution of background fluorescence, together with scattered light, was typically less than 1% of the total intensity. Since the lactone ring of the camptothecin drug undergoes hydrolysis in aqueous medium, all measurements were completed within the shortest possible time, less than 1 minute after mixing the drug stock solution with PBS or the liposomes. In each case, analysis was initiated immediately after mixing the drug stock solution with PBS or with the liposomes. All measurements were performed at 37° C. unless otherwise noted.
The relative fluorescence intensity of 1×10^-6 M of camptothecin free in PBS buffer at 37° C. is shown. The emission spectra of the camptothecin was recorded using exciting light of 370 nm.
An exciting light of 390 nm was used to record the emission spectra of topotecan. A decrease in the emission intensity is observed for topotecan associated with the DMPG liposome.
All spectra were recorded using camptothecin drug concentrations of 2
μM. The DMPC and DMPG concentrations were 0.29 M. Experiments were
conducted in PBS buffer at 37° C.
Also found in Table II is a relative index of the emission intensity levels from these camptothecin drugs in PBS at their respective excitation and emission λMAX.

[3] = Steady-state fluorescence anisotropy in solvents and liposomes; conditions: pH 3, 37° C.
Description: as §1, §2
While the spectral changes provide qualitative evidence that the camptothecin drugs bind the liposome membranes, fluorescence anisotropy titration, offers the most sensitive means for quantitatively assessing the extent of the binding. The fluorescence anisotropy titration was performed according to the method of Burke and Tritton, Biochemistry 24: 1768-1776 (1985).
A steady-state fluorescence anisotropy (a) measurement is related to the rotational rate of the fluorescent molecule through the Perrin Equation: […]
where a0 is the limiting fluorescence anisotropy value, that is, the anisotropy value in the absence of depolarizing rotations, T is the excited-state lifetime, and .phi. is the rotational correlative time of the fluorophore. According to Equation 1, changes in either the T or .phi. values of a fluorescent compound can modulate its steady-state anisotropy.
The limiting fluorescence anisotropy (a0) values were also measured. The maximum values of (a) were obtained by dissolving the camptothecin drugs in the viscous solvent glycerol and cooling the samples to low temperatures. Steady-stated anisotropy (a) values were determined for samples containing 1 μM drug at 37° C.
Where the solvent viscosity is high and temperature is low, depolarizing rotations are at a minimum. By extrapolating these (a) values to -25° C., the limiting anisotropy values (a0) for the camptothecin drugs, were determined. […]

[4] = Overall association constant by fluorescence anisotropy titration, DMPC liposomes; conditions: DMPC, pH 3.0

- lactone hydrolysis when associated with liposomes ([1]; DMPC and DMPG liposomes): some hydrolysis occurred at 1 hour
- C/L drug DMPC Lip. ([1]; DMPC liposomes, pH 7.4, 37° C.): 0.45
- t1/2 drug DMPC Lip. ([1]; DMPC liposomes, pH 7.4, 37° C.): 56 min
- C/L drug DMPG Lip. ([1]; DMPG liposomes, pH 7.4, 37° C.): 0.15
- t1/2 drug DMPG Lip. ([1]; DMPG liposomes, pH 7.4, 37° C.): 49 min
- lactone ring hydrolysis at 5 hours ([1]; DMPG or DMPC liposomes, 5 hours): ≤ 40%
- carboxylate/lactone ratio (C/L) free drug ([1]; final equilibrium, free in PBS, pH 7.4, 37° C.): 6.0
- t1/2 free drug ([1]; lactone hydrolysis, free in PBS, pH 7.4, 37° C.): 22.5 min
- λMAX emission, DMPC ([2]; DMPC liposomes 0.29 M, pH 7.4, 37° C.): 442 nm
- λMAX emission, DMPG ([2]; DMPG liposomes 0.29 M, pH 7.4, 37° C.): 436 nm
- shift of emission maxima upon decrease of pH / protonation ([2]; free in PBS): about 25 nm
- reduction in emission intensity levels relative to camptothecin ([2]; free in PBS, pH 7.4): 1000 -fold
- λMAX emission, PBS ([2]; free in PBS, pH 7.4, 37° C.): 439 nm
- Relative Fluorescence ([2]; in PBS, pH 7.4, at excitation and emission λMAX): 0.001
- λMAX excitation ([2]; pH 3.0): 381 nm
- spectral shift on association with DMPC liposomes, towards the blue region ([2]; pH 3.0, DMPC): 13 nm
- λMAX emission, DMPC ([2]; pH 3.0, DMPC liposomes): 477 nm
- Relative Fluorescence ([2]; pH 3.0, PBS): 0.001
- λMAX emission, PBS ([2]; pH 3.0, free in PBS): 464 nm
- λMAX excitation ([2]; pH 7.4, 2 μM drug, PBS, 37° C.): 381 nm
- steady-state anisotropy (a), DMPC ([3]; DMPC liposomes): 0.190
- steady-state anisotropy (a), PBS ([3]; PBS): 0.009
- overall association constant K, DMPC [4]: 25 M⁻¹
SMILES: CCC1(O)C(=O)OCc2c1cc1n(c2=O)Cc2cc3c(N)cccc3nc2-1 (centres unmarked) [9-aminocamptothecin]
